Data set [1] in a line: Influence on the gastro-intestinal tract (ulceration of the gastric epithelium, Shay et al.). The data set is classed as in vivo, male rats of Sprague Dawley strain. As for the experimental part: Influence on the gastro-intestinal tract
Ten male rats of Sprague Dawley strain, weighing 200-300 g were used for each compound tested. According to the method of Shay et al. (Shay, H., Komapov, S. A., Feb. S. S., Meranir, D., Gruenstein, M. Siplet, H. Gastroenterology 5, 43, 1945), under anesthesia, the pylorus was ligated and 4 hours later test compounds were orally administered. The animal was sacrificed 1 hour after compound administration. The stomach was removed and examined for macroscopic damage. The ulceration of the gastric epithelium was evaluated by the following evaluation: 0=no hemorrhage sites; 1=some isolated hemmorrhagic sites; 2=redness of the gastric epithelium; 3=1 to 5 small ulcers with a diameter smaller than 3 mm; 4=many small ulcers; 5=ulcers--greater than 3 mm; 6=perforated ulcer.

The nature of data set [2]: Anti-inflammatory activity (carrageenin induced edema test). The data set is classed as in vivo, male rats of Spargue Dawley strain. Particulars: for anti-inflammatory versus antinociceptive action (in words): conclusion; for % Edema Inhibition, 1 hour / % Edema Inhibition, 3 hours / % Edema Inhibition, 5 hours: oral, 30 min before carrageenin, mg/kg: ASA 100, its ester 173, XAA 120, its ester 186, TAA 60, its ester 88; for % Edema Inhibition, 1 hour: 1 hour after carrageenin; for % Edema Inhibition, 3 hours: 3 hours after carrageenin; for % Edema Inhibition, 5 hours: 5 hours after carrageenin. As for the experimental part: Anti-inflammatory Activity (Carrageenin induced edema test)
Fifteen to twenty male rats of Spargue Dawley strain weighing 150-200 g, were employed for each compound tested. 0.1 ml of 1% carrageenin saline suspension was injected into the subplantar region of the right hind-paw. The test compounds were orally administered 30 minutes prior to the injection of carrageenin and the foot volume was determined 1,3 and 5 hours after the injection of carrageenin. The percent swelling in the foot was obtained by comparing the volume before and after the injection of carrageenin, and the rate of inhibition in the treated animals was calculated.
On the technique in general: In the carrageenan paw model, swelling and tenderness develop within hours.

For data set [3] the following is noted: prior art, cited from earlier work; for anti-inflammatory effect (known): administered to mammals.
A short description of data set [4]: Analgesic activity, tail pressure test. The conditions noted are these: oral; control (water) = 0; mg/kg: ASA 100, its ester 173, XAA 50, its ester 77, TAA 50, its ester 73.5. The class given is in vivo, male mice of Rockland strain. As for the experimental part: Tail pressure test: Ten male mice of Rockland strain weighing 20-25 g were used for each compound tested. The response threshold on applying pressure to the tail was determined with an analgesy meter at 15 and 60 minutes after oral administration of the test compound. The pressure at which a struggle was elicited was read.

Data set [5] is described as follows: Analgesic activity, Randall-Selitto's test. The data set is classed as in vivo, male mice of Rockland strain. The conditions noted are these: oral, 30 min before carrageenin; control (water) = 0; mg/kg: ASA 100, its ester 173, XAA 50, its ester 77, TAA 50, its ester 73.5. On the procedure:
Randall-Selitto's method: Ten male mice of Rockland strain weighing 25 g were used for each compound tested. 0.1 ml of 1% carrageenin saline suspension was injected into the subplantar region of the right foot. The test compounds were orally administered 30 minutes before the injection. At hourly intervals for 3 hours after the carrageenin injection, the pain threshold for the inflammed feet was measured, determining the amount of pressure with an analgesy meter.

Where [6] appears, read: oral, pylorus ligated, 1 hour after administration, 0=no hemorrhage sites ... 6=perforated ulcer, control 3.0, mg/kg: phenylbutazone 75, ASA 100, its ester 173, XAA 120, its ester 186, TAA 60, its ester 88.
Setting [7] is: oral, pylorus ligated, 1 hour after administration, versus control (distilled water) 3.0, doses as for Evaluation.

As to `Cc1cccc(Nc2ccccc2C(=O)OC2OC(=O)c3ccccc32)c1C` (centres unmarked) [Phthalidyl N-(2',3'-xylyl) anthranylate, Phthalydil N(2',3'-xylyl) anthranylate], the “Evaluation (ulceration of the gastric epithelium, score 0-6)” value in data set [1] (setting [6]) is recorded as 3.3. Besides, the “Increase (of ulceration evaluation)” value in data set [1] (setting [7]) was determined as 0.3. In addition, in data set [2], the “anti-inflammatory versus antinociceptive action (in words)” value is given as “act as anti-inflammatory agents more tha as antinociceptive agents”; the “% Edema Inhibition, 1 hour” value turned out to be 27.4%; the “% Edema Inhibition, 3 hours” value came out at 34.2%; the “% Edema Inhibition, 5 hours” value came to 30.4%.

Consider `O=C(O)c1cccnc1Nc1cccc(C(F)(F)F)c1` [2 (3'-trifluoromethyl) anilino) pyridine-3-carboxylic acids], for which the “anti-inflammatory effect (known)” value in data set [3] is on record as “known to have an anti-inflammatory effect”.

Take `O=C(OC1OC(=O)c2ccccc21)c1ccccc1Nc1cccc(C(F)(F)F)c1` (centres unmarked) [Phthalydil N(3'-trifluoromethylphenyl) anthranylate]: in data set [1] (setting [6]), the “Evaluation (ulceration of the gastric epithelium, score 0-6)” value turned out to be 3.5. Further, the “Increase (of ulceration evaluation)” value in data set [1] (setting [7]) turned out to be 0.5. For the same compound, in data set [2], the “anti-inflammatory versus antinociceptive action (in words)” value is listed as “act as anti-inflammatory agents more tha as antinociceptive agents”; the “% Edema Inhibition, 1 hour” value was 35.4%; the “% Edema Inhibition, 3 hours” value is 40.2%; the “% Edema Inhibition, 5 hours” value was 37.4%.

In the case of `CCCCC1C(=O)N(c2ccccc2)N(c2ccccc2)C1=O` [Phenylbutazone], in data set [1] (setting [6]), the “Evaluation (ulceration of the gastric epithelium, score 0-6)” value came to 5.5. Moreover, the “Increase (of ulceration evaluation)” value in data set [1] (setting [7]) was 2.5.

As for `Cc1cccc(Nc2ccccc2C(=O)O)c1C` [N-(2',3'-xylyl) anthranylic acid (XAA), N (2',3'-dimethylphenyl) anthranylic acid], the “anti-inflammatory effect (known)” value in data set [3] was “known to have an anti-inflammatory effect”. In data set [1] (setting [6]), the “Evaluation (ulceration of the gastric epithelium, score 0-6)” value came out at 4.2. In addition, the “Increase (of ulceration evaluation)” value in data set [1] (setting [7]) is recorded as 1.2.

`CC(=O)Oc1ccccc1C(=O)O` [Acetylsalicylic acid (ASA), o-Acetylsalicylic acid]: the “analgesic effect (known)” value in data set [3] is “known to have an analgesic effect”. In addition, in data set [1] (setting [6]), the “Evaluation (ulceration of the gastric epithelium, score 0-6)” value came out at 4.1. Further, the “Increase (of ulceration evaluation)” value in data set [1] (setting [7]) is 1.1. Also, in data set [2], the “% Edema Inhibition, 1 hour” value came out at 3.8%; the “% Edema Inhibition, 3 hours” value turned out to be 24.8%; the “% Edema Inhibition, 5 hours” value is 25.3%. Moreover, the “Relative strength, Tail pressure test” value in data set [4] came out at 1.00. In addition, the “Relative strength, Randall-Selitto test” value in data set [5] is 1.05.

For the compound `CC(=O)Oc1ccccc1C(=O)OC1OC(=O)c2ccccc21` (centres unmarked) [Phthalidyl acetylsalicylate, Phthalydil o-acetylsalicylate], the “Evaluation (ulceration of the gastric epithelium, score 0-6)” value in data set [1] (setting [6]) was 3.0. Further, in data set [2], the “% Edema Inhibition, 1 hour” value amounted to 10.2%; the “% Edema Inhibition, 3 hours” value was 30.30%; the “% Edema Inhibition, 5 hours” value is listed as 31.0%. In addition, the “Relative strength, Tail pressure test” value in data set [4] was determined as 1.82. Further, in data set [5], the “Relative strength, Randall-Selitto test” value is 1.54.

Take `O=C(O)c1ccccc1Nc1cccc(C(F)(F)F)c1` [N (3'-trifluoromethylphenyl) anthranylic acid]: in data set [3], the “anti-inflammatory effect (known)” value is listed as “known to have an anti-inflammatory effect”. Also, in data set [1] (rat, in vivo, po), the “Evaluation (ulceration of the gastric epithelium, score 0-6)” value was determined as 4.9 and the “Increase (of ulceration evaluation)” value came out at 1.9. Also, in data set [2], the “% Edema Inhibition, 1 hour” value is on record as 24.3%; the “% Edema Inhibition, 3 hours” value was 29.3%; the “% Edema Inhibition, 5 hours” value is 28.3%.

The record behind these values is patent publication US4256760A, “Methods of treating mammals suffering from inflammation and pain” (Laboratorios Bago S.A., priority 1979, dated 1981).
